Results: article PMC6843921 (Biomolecules, 2019)
Where “and” joins values, the source holds several entries; their conditions need not be identical. Identical values can stand only once. Like-named read-outs stand apart in the source and are kept apart here.

Assays:
[1] = parameters: method as in PMID 9299023; conditions: smallest reported value for the ATP:Mg^2+ complex; read-out: dissociation constant; cited from earlier work
[2] = target: T1, hDUT (Homo sapiens, UniProt P33316); conditions: no Mg^2+; for kcat: dUTP hydrolysis, 20 °C, pH 7.5
T1 sequence (P33316 1-164 isoform P33316-2): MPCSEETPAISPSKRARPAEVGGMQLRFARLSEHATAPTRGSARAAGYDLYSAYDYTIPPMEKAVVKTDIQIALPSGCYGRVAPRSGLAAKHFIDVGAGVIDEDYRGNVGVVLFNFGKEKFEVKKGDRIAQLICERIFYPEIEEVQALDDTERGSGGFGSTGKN
Method: (§1) Continuous pH indicator-based assays were performed to measure enzyme activity at 20 °C as described in [26]. Briefly, 1 µM protein was used in a buffer pH 7.5 containing 1 mM HEPES, 100 mM KCl and 40 µM phenol red. A Specord 200 (Analytic, Jena, Germany) spectrophotometer and 10-mm-path length cuvettes were used, and absorbance was recorded at 559 nm. Initial velocity was determined from the first 10% of the progress curve. […] Data fitting was accomplished using OriginPro 7.5 (OriginLab Corp, Northampton, MA, USA).

[3] = target: T2, mtDUT (Mycobacterium tuberculosis, UniProt P9WNS5)
T2 sequence (P9WNS5 whole entry): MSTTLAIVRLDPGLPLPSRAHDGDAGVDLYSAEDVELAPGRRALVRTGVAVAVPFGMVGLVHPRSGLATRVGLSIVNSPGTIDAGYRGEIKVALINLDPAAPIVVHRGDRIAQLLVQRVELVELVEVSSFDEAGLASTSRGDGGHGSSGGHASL
Method: as §1

[4] = EDTA titrated with Mg^2+, pH 7.5, 293 K
[5] = target: T3, EcMutT (Escherichia coli, UniProt P08337); conditions: no Mg^2+, pH 7.5, 293 K
T3 sequence (P08337 whole entry): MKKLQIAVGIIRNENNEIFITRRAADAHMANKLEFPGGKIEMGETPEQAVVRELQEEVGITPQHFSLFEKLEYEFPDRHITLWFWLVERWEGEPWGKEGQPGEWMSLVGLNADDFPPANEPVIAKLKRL

[6] = target: T4, Taq polymerase (Thermus aquaticus, UniProt P19821); conditions: no Mg^2+, pH 7.5, 293 K
T4 sequence (P19821 whole entry): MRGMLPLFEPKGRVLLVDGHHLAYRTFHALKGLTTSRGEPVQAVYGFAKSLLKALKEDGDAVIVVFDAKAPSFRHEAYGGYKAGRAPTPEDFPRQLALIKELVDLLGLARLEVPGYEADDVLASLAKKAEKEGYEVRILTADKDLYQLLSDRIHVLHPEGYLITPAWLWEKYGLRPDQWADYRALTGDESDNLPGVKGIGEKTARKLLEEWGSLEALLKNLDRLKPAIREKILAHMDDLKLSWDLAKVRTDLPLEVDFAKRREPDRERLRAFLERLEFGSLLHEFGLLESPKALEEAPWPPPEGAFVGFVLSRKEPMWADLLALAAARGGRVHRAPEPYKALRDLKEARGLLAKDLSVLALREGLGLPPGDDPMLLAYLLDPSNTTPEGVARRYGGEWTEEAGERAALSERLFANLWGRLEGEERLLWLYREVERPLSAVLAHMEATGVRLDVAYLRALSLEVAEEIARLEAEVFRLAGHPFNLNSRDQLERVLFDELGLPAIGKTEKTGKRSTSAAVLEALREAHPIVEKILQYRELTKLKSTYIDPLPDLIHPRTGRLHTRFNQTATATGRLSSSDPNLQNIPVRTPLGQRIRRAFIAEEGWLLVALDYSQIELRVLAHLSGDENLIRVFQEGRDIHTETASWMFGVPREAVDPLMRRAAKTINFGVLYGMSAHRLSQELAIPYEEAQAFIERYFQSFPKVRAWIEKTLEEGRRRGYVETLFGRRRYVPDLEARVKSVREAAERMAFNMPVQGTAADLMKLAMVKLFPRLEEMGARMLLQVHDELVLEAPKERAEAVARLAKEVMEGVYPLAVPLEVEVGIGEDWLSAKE

[7] = target: T3, EcMutT; assay: biochemical
[8] = target: T4, Taq polymerase; assay: biochemical
[9] = target: T1, hDUT; assay: Thermofluor stability assay; format: binding; parameters: His tag (N); made in house; conditions: for Tm (5 mM Mg^2+): 5 mM MgCl2
[10] = target: T1, hDUT; assay: Isothermal titration calorimetry (ITC); format: binding; parameters: His tag (N); made in house
[11] = target: T2, mtDUT; assay: biochemical; format: binding; parameters: His tag (N); made in house
[12] = target: T2, mtDUT; conditions: cited from earlier work
[13] = target: T1, hDUT; parameters: His tag (N); made in house; method as in PMID 18519027, PMID 17848562; conditions: dUTP hydrolysis; 5 mM Mg^2+, no EDTA; reported previously ref 20, 51; cited from earlier work
[14] = target: T1, hDUT; parameters: His tag (N); made in house; method as in PMID 20601405, PMID 17880943, PMID 17848562; conditions: same titration in the presence of Mg^2+; cited from earlier work
[15] = apparent, no Mg^2+, pH 7.5, 293 K, average and SD
[16] = no Mg^2+, pH 7.5, 293 K, average and SD
[17] = hDUT complexed with ligand (100 µM dUPNPP or 1 mM dUMP)
[18] = fit of the titration shown in Figure S1A, no Mg^2+
[19] = fit of the titration shown in Figure S1B, no Mg^2+

## Nc1ncnc2c1ncn2[C@@H]1O[C@H](COP(=O)(O)OP(=O)(O)OP(=O)(O)O)[C@@H](O)[C@H]1O [ATP]
[1]
  Kd: 46.3 µM

## O=C(O)CN(CCN(CC(=O)O)CC(=O)O)CC(=O)O [EDTA, ethylene diamine tetraacetic acid]
[2]; 30 µM EDTA
  KM increase: 2.7 fold
  kcat: 3.30 ± 0.26 s⁻¹
[2]; 100 µM EDTA
  kcat decreased to: 6%
  kcat: 0.24 ± 0.03 s⁻¹
[3]
  KM increase: 3.7 fold
[4]
  ΔG: -8.0 ± 0.9 kcal/mol
  ΔH: 4.4 ± 0.3 kcal/mol
  −TΔS: -12.5 ± 0.6 kcal/mol
[4]; apparent
  Kd: 2530 ± 180 nM
[5]
  ΔG: -8.4 ± 0.1 kcal/mol
  ΔH: -9.7 ± 0.02 kcal/mol
  −TΔS: 1.3 ± 0.1 kcal/mol
[6]
  ΔG: -9.8 ± 0.0 kcal/mol
  ΔH: -6.3 ± 0.7 kcal/mol
  −TΔS: -3.5 ± 0.7 kcal/mol
[7]
  Kd: 550 ± 66 nM
[8]
  Kd: 47 nM
[9]; apo hDUT
  Tm (100 µM EDTA): 58.5 ± 0.1 °C
[10]; absence of Mg^2+
  Kd: 0.199 µM
[10]; [15]
  Kd: 0.2 ± 0.009 µM
[10]; [16]
  ΔG: -9.0 ± 0.0 kcal/mol
  ΔH: -11.2 ± 0.4 kcal/mol
  −TΔS: 2.2 ± 0.4 kcal/mol
[11]
  Kd: 78 nM
[11]; [16]
  ΔG: -9.6 ± 0.2 kcal/mol
  ΔH: -4.2 ± 1.0 kcal/mol
  −TΔS: -5.3 ± 1.2 kcal/mol

## [Mg+2] [Mg^2+]
[12]
  kcat: 2.39 ± 0.16 s⁻¹
[12]; dUTP hydrolysis, 5 mM Mg^2+, no EDTA, reported previously ref 20, 51
  Km: 1720 ± 510 nM
[9]; apo hDUT
  Tm (5 mM Mg^2+): 59.5 ± 0.3 °C
[9]; apo hDUT, 5 mM Mg^2+ vs no Mg^2+
  increase of melting temperature in the presence of Mg^2+: 0.9 °C
[13]
  Km: 2260 ± 330 nM
  kcat: 5.27 ± 0.24 s⁻¹

## O=c1ccn([C@H]2C[C@H](O)[C@@H](COP(=O)(O)O)O2)c(=O)[nH]1 [dUMP]
[9]; [17]
  Tm (100 µM EDTA): 58.7 ± 0.1 °C
  Tm (5 mM Mg^2+): 62.3 ± 0.1 °C
  Tm (No Mg^2+, no EDTA): 59.7 ± 0.1 °C

## O=c1ccn([C@H]2C[C@H](O)[C@@H](COP(=O)(O)NP(=O)(O)OP(=O)(O)O)O2)c(=O)[nH]1 [dUPNPP]
[9]; [17]
  Tm (100 µM EDTA): 58.3 ± 0.1 °C
  Tm (5 mM Mg^2+): 63.9 ± 0.3 °C
  Tm (No Mg^2+, no EDTA): 59.1 ± 0.2 °C
[10]; [15]
  Kd: 44 µM and 43.9 µM
[10]; [18]
  Kd: 54 µM
  n (stoichiometry): 0.41
  ΔG: –5.7 kcal/mol
  ΔH: –19.9 kcal/mol
  –TΔS: 14.1 kcal/mol
[10]; [16]
  ΔG: -5.9 ± 0.2 kcal/mol
  ΔH: -17.4 ± 3.6 kcal/mol
  −TΔS: 11.5 ± 3.7 kcal/mol
[11]
  n (stoichiometry): 1
[11]; [19]
  ΔG: –6.2 kcal/mol
  ΔH: –4.4 kcal/mol
  –TΔS: –1.8 kcal/mol
[11]; [16]
  ΔH: -4.5 ± 0.2 kcal/mol
  −TΔS: -2.1 ± 0.4 kcal/mol
[14]
  Kd: 2 to 7 µM
